# Assay results from ChEMBL document CHEMBL4665661, “Design, synthesis, and biological activity evaluation of (-)-6-O-desmethylantofine analogues as potent anti-cancer agents” (Bioorg Med Chem, 2019).
# Activity calls are given as the source filed them. The rule behind the calls is not given here.
# What was measured:
# [1] = system: PC-3; experiment: Antiproliferative activity against human PC-3 cells incubated for 72 hrs by MTT assay; format: functional, cell-based
# [2] = system: Detroit 562; experiment: Antiproliferative activity against human Detroit 562 cells incubated for 72 hrs by MTT assay; format: functional, cell-based
# [3] = system: Bel-7402; experiment: Antiproliferative activity against human Bel-7402 cells after 72 hrs by SRB assay; format: functional, cell-based; conditions: Bel-7402, 72 h
# [4] = system: SK-HEP1; experiment: Antiproliferative activity against human SK-HEP 1 cells incubated for 72 hrs by MTT assay; format: functional, cell-based
# [5] = system: SK-BR-3; experiment: Antiproliferative activity against human SK-BR-3 cells incubated for 72 hrs by MTT assay; format: functional, cell-based
# [6] = system: KB; experiment: Cell cycle arrest in drug- resistant human KB/VCR cells assessed as inhibition of DNA synthesis by measuring increase in cell population at S phase at 1 to 10 nM upto 12 hrs by RNase A/propidium iodide staining-based flow cytometric analysis; format: functional; conditions: dose nM 1-10, time hrs <=12
# [7] = system: COLO 205; experiment: Antiproliferative activity against human COLO 205 cells incubated for 72 hrs by MTT assay; format: functional, cell-based
# [8] = system: Bel-7402; experiment: Induction of apoptosis in human Bel-7402 cells assessed as late apoptotic cells at 1 uM after 72 hrs by FITC-annexin V/propidium iodide-double staining based flow cytometry (reference value: 3.06%); format: functional
# [9] = system: 786-0; experiment: Antiproliferative activity against human 786-0 cells incubated for 72 hrs by MTT assay; format: functional, cell-based
# [10] = system: K562/Adr; experiment: Antiproliferative activity against drug- resistant human K562/ADR cells; format: functional, cell-based
# [11] = system: Bel-7402; experiment: Induction of apoptosis in human Bel-7402 cells assessed as late apoptotic cells at 0.01 uM after 72 hrs by FITC-annexin V/propidium iodide-double staining based flow cytometry (reference value: 3.06%); format: functional
# [12] = system: K562; experiment: Cell cycle arrest in drug- resistant human K562/ADR cells assessed as inhibition of DNA synthesis by measuring increase in cell population at S phase at 1 to 100 nM upto 24 hrs by RNase A/propidium iodide staining-based flow cytometric analysis; format: functional; conditions: dose nM 1-100, time hrs <=24
# [13] = system: KB; experiment: Antiproliferative activity against human KB cells incubated for 72 hrs by MTT assay; format: functional, cell-based
# [14] = system: Bel-7402; experiment: Effect on DNA damage marker protein level in human Bel-7402 cells assessed as phosphor gamma H2AX at 100 fold antiproliferative IC50 after 1 hr by Western blot analysis; format: functional, cell-based
# [15] = system: Bel-7402; experiment: Inhibition of DNA synthesis in human Bel-7402 cells assessed as Brdu positive cells at 0.1 uM measured after 1 hr by propidium iodide staining-based BrdU incorporation assay (reference value: 29.8%); format: functional; design: scale not given: the % may be the effect or the level left; conditions: time 30 min, 0.5 h
# [16] = system: A549; experiment: Antiproliferative activity against human A549 cells incubated for 72 hrs by MTT assay; format: functional, cell-based
# [17] = system: MCF7; experiment: Antiproliferative activity against human MCF7 cells incubated for 72 hrs by MTT assay; format: functional, cell-based
# [18] = system: Bel-7402; experiment: Inhibition of DNA synthesis in human Bel-7402 cells assessed as Brdu positive cells at 0.01 uM measured after 1 hr by propidium iodide staining-based BrdU incorporation assay (reference value: 29.8%); format: functional; design: scale not given: the % may be the effect or the level left; conditions: time 30 min, 0.5 h
# [19] = system: Bel-7402; experiment: Induction of apoptosis in human Bel-7402 cells assessed as necrotic cells at 1 uM after 72 hrs by FITC-annexin V/propidium iodide-double staining based flow cytometry (reference value: 2.86%); format: functional
# [20] = system: MDA-MB-231; experiment: Antiproliferative activity against human MDA-MB-231 cells incubated for 72 hrs by MTT assay; format: functional, cell-based
# [21] = system: KB; experiment: Antiproliferative activity against human KB cells; format: functional, cell-based
# [22] = system: HCT-116; experiment: Antiproliferative activity against human HCT-116 cells incubated for 72 hrs by MTT assay; format: functional, cell-based
# [23] = system: Bel-7402; experiment: Cell cycle arrest in human Bel-7402 cells assessed as increase in cell population at S phase at 11 nM by RNase A/propidium iodide staining-based flow cytometric analysis (reference value: 26.3%); format: functional
# [24] = system: Bel-7402; experiment: Induction of apoptosis in human Bel-7402 cells assessed as late apoptotic cells at 0.1 uM after 72 hrs by FITC-annexin V/propidium iodide-double staining based flow cytometry (reference value: 3.06%); format: functional
# [25] = system: K562; experiment: Cell cycle arrest in human K562 cells assessed as inhibition of DNA synthesis by measuring increase in cell population at S phase at 1 to 100 nM upto 24 hrs by RNase A/propidium iodide staining-based flow cytometric analysis; format: functional; conditions: dose nM 1-100, time hrs <=24
structure (smiles),measurement,setting,value
COc1cc2c3c(c4ccc(OCC#N)cc4c2cc1OC)CN1CCC[C@@H]1C3,inhibition,[1],Active
same,inhibition,[2],Active
same,IC50,[3],12 nM
same,inhibition,[4],Active
same,inhibition,[5],Active
same,Activity,[6],Active
same,inhibition,[7],Active
same,Activity,[8],15.5%
same,inhibition,[9],Active
same,IC50,[10],15.8 nM
same,Activity,[11],1.55%
same,Activity,[12],Active
same,inhibition,[13],Active
same,Activity,[14],inactive
same,Activity,[15],13%
same,inhibition,[16],Active
same,inhibition,[17],Active
same,Activity,[18],26.9%
same,Activity,[19],3.73%
same,inhibition,[20],Active
same,IC50,[21],1100 nM
same,inhibition,[22],Active
same,Activity,[23],28.8%
same,Activity,[24],8.29%
same,Activity,[25],Active
